From patent US8440646B1 (priority 2006, dated 2013)
Values after ≈ are worked out from the molar mass of the structure shown. Read-outs that look alike come from different tables or passages of the source.

How the values were obtained:
B. anthracis Ame = assay: microbe, parasite or virus in culture; format: cell-based; details: Bacillus anthracis
E. faecium 494 = assay: microbe, parasite or virus in culture; format: cell-based; details: Enterococcus faecium
E. faecalis 29212 = assay: microbe, parasite or virus in culture; format: cell-based; details: Enterococcus faecalis
S. aureus RN4250 = assay: microbe, parasite or virus in culture; format: cell-based
B. cereus 98/2620 = assay: microbe, parasite or virus in culture; format: cell-based; details: Bacillus cereus
B. cereus 97/4144 = assay: microbe, parasite or virus in culture; format: cell-based; details: Bacillus cereus
[1] = tested on: Peptidoglycan synthesis of S. aureus RN450; assay: microbe, parasite or virus in culture; format: cell-based; details: Staphylococcus aureus
B. anthracis panel = assay: microbe, parasite or virus in culture; format: cell-based; details: Bacillus anthracis
B. anthracis V770NPIR = format: cell-based
B. anthracis Vollum1B = assay: microbe, parasite or virus in culture; format: cell-based; details: Bacillus anthracis
S. pneumoniae 157E = assay: microbe, parasite or virus in culture; format: cell-based; details: Streptococcus pneumoniae
S. pneumoniae PBS1339 = tested on: S. pneumoniae PBS1339; set-up: species or system mice; details: mouse, in vivo
B. anthracis Sterne = assay: microbe, parasite or virus in culture; format: cell-based; details: Bacillus anthracis
S. aureus RN450 = assay: microbe, parasite or virus in culture; format: cell-based; details: Staphylococcus aureus
S. aureus MRSA5 = assay: microbe, parasite or virus in culture; format: cell-based; details: Staphylococcus aureus
protein synthesis = details: cited from earlier work
B. cereus 95/3032 = assay: microbe, parasite or virus in culture; format: cell-based; details: Bacillus cereus
S. pneumoniae 700905 = assay: microbe, parasite or virus in culture; format: cell-based; details: Streptococcus pneumoniae
B. anthracis V770 = assay: microbe, parasite or virus in culture; format: cell-based; details: Bacillus anthracis
B. cereus 98/2658 = assay: microbe, parasite or virus in culture; format: cell-based; details: Bacillus cereus
[2] = tested on: Protein synthesis of S. aureus RN450; assay: microbe, parasite or virus in culture; format: cell-based; details: Staphylococcus aureus
16S rRNA = details: cited from earlier work

For `C[C@H]1c2cccc(O)c2C(=O)C2=C(O)[C@]3(O)C(=O)C(C(N)=O)=C(O)[C@@H](N(C)C)[C@@H]3[C@@H](O)[C@@H]21` [Doxycycline, reference compound], the MIC (B. anthracis Ame) was less than 0.03 µg/mL, the MIC (E. faecium 494) was 16 µg/mL (≈ 36 µM) and the MIC (E. faecalis 29212) was 4 µg/mL (≈ 9 µM). For the same compound, the susceptibility in words (S. aureus RN4250) was “resistant”, the MIC (S. aureus RN4250; Staphylococcus aureus, RN4250) was 4 µg/mL (≈ 9 µM) and the MIC (B. cereus 98/2620) was 4 µg/mL (≈ 9 µM). It also gave an MIC (B. cereus 97/4144) of 4 µg/mL (≈ 9 µM), an IC50 ([1]; read-out: Peptidoglycan synthesis IC50) of 3.9 µg/mL (≈ 8.78 µM) and an IC90 ([1]; read-out: Peptidoglycan synthesis IC90) of 18.2 µg/mL (≈ 41 µM). The MIC50 (B. anthracis panel) was 0.06 µg/mL (≈ 0.135 µM), the MIC90 (B. anthracis panel) was 0.25 µg/mL (≈ 0.563 µM) and the susceptibility in words (B. anthracis V770NPIR) was “fully doxycycline-resistant”. The MIC (B. anthracis Vollum1B) was 0.06 µg/mL (≈ 0.135 µM), the MIC (S. pneumoniae 157E) was 0.06 µg/mL (≈ 0.135 µM) and the PD50 (S. pneumoniae PBS1339; iv) was 7.1 mg/kg. For the same compound, the PD50 (S. pneumoniae PBS1339; po) was 35.3 mg/kg, the MIC (B. anthracis Sterne) was 0.12 µg/mL (≈ 0.27 µM) and the MIC (S. aureus RN450) was 0.06 µg/mL (≈ 0.135 µM). For the same compound, the MIC (S. aureus MRSA5) was 4 µg/mL (≈ 9 µM), the “inhibition of protein synthesis in words” value (protein synthesis) was “potent inhibitors of protein synthesis” and the MIC (B. cereus 95/3032) was no more than 0.06 µg/mL. It also gave an MIC (S. pneumoniae 700905) of 4 µg/mL (≈ 9 µM), an MIC (B. anthracis V770) of 1 µg/mL (≈ 2.25 µM) and an MIC (B. cereus 98/2658) of no more than 0.06 µg/mL. The IC50 ([2]; read-out: Protein synthesis IC50) was less than 0.03 µg/mL, the IC90 ([2]; read-out: Protein synthesis IC90) was less than 0.03 µg/mL and the “effect on reactivity of nucleotides within the 16S rRNA (chemical footprint)” value (16S rRNA) was “affect the reactivity of nucleotides”.
